The values that follow come from paper PMC4915154, “Development of background-free tame fluorescent probes for intracellular live cell imaging” (Nature Communications, 2016).

Data set [1] in a line: Photostability measurements. It is filed as physicochemical. Conditions: 10 μM in PBS buffer pH 7.4 with 1% DMSO, intensive radiation of strong light source. The procedure: 10 μM of CO-1 solution in PBS buffer (pH 7.4) containing 1% DMSO were placed in a 96-well plates. Fluorescence measurement were recorded every 30 s interval for a total period of 12 h (Ex/Em=490/520) under a xenon flashlamp. For harsh condition experiment, photostability test was done under high intensity UV lamp (Blak Ray, 100 W, 365 nm). Plates were irradiated for 10 min up to 2.5 h at 10 cm distance.
Supplementary Figure 17 Photostability analysis of CO-1.
10 μM CO-1 solution in PBS buffer (pH 7.4) containing 1% DMSO were placed in a 96-well plates. (a) Fluorescence measurement were recorded every 30 seconds interval for a total period of 12 hours (Ex/Em = 490/520) under a xenon flashlamp. (b) Photostability test under high intensity UV lamp (Blak Ray, 100W, 365 nm). Plates were irradiated for 10 minutes up to 2.5 hours at 10 cm distance. Values are represented as means (n=3) and fitted to a non-linear regression one-phase exponential decay (GraphPad Prism 5.0)
(§1) (1 picture or pasted object on this page, not shown here)

Another data set deals with U-2 OS cells. Briefly: Cell viability assay (MTS). It counts as cell-based, human. Conditions: 0-10 μM, 1-16 h. The procedure: Cell viability was assessed using MTS assay kit (Promega). 1 × 10^5 U-2 OS cells were seeded on 10 mm culture dishes; cells were stained with or without CO-1 ([…]) for 1–16 h. After incubation, the MTS reagent was added and incubated for 4 h at 37 °C. Absorbance was determined at 490 nm using SpectraMax M2 plate reader.
Supplementary Figure 18 Cell viability test for CO-1.
Cell viability was measured by MTS assay for concentration of probe at 0 μM, 0.3 μM, 1 μM, 3 μM and 10 μM in 1 hour, 4 hours and 16 hours incubation in U-2 OS cells. Absorbance was determined at 490 nm. Each absorbance value was subtracted with blank sample (blank sample = cells containing compound at respective concentration without MTS reagent). Cell viability was calculated by: (viable cells)% = (OD of treated sample/OD of untreated sample)×100. Data are presented as the means + SD obtained from triplicate experiments.
(also on this page, place not known: 25 50 75 100 hour (%) Incubation time CO-1 0 μM μM μM 0 0.3 1 3 μM 10 μM 1 4 hours 16 hours U -2 ( blank reagent) . Cell viability)
as §1

Data set [2] relates to azide-tagged intracellular organelles in U-2 OS cells. As to the kind of experiment: Live cell SPAAC labelling of azide-tagged organelles (mitochondria, lysosome, golgi apparatus). It counts as cell-based, human. Conditions: U-2 OS cells pre-treated with TPP-Az, Sphingo-Az or Morph-Az, 2 μM probe, 1 h, 37 °C. The source says:
Next, we investigated intracellular imaging in live cells using CO-1. We synthesized various azide-bearing reporters: TPP-Az, a triphenylphosphonium analogue which accumulates in mitochondria; Sphingo-Az, a ceramide analogue to target golgi apparatus; and Morph-Az, an azide derivative with morpholine moiety as a directing group for lysosome (Fig. 3a). SPAAC covalent labelling reactions between CO-1 and all azide reporters in vitro were clean and rapid. We anticipated that the cell permeable CO-1 is capable of labelling any azide reporters effectively, regardless the reporters' cellular localization. We added 2 μM CO-1 to the growth media of U-2 OS cells pre-treated with TPP-Az, Sphingo-Az or Morph-Az separately. Confocal fluorescence images were then taken after probe washing.
Figure 3 Live cell imaging with CO-1. (a) Chemical structures and schematic illustration of the covalent labelling of azide-tagged organelles using CO-1 in live cells. (b) Fluorescence imaging of mitochondria, lysosome and golgi apparatus in U-2 OS cells labelled with CO-1. Cells pre-treated with TPP-Az, Morph-Az or Sphingo-Az were incubated with 2 μM CO-1 in growth media at 37 °C for 1 h and followed by counterstaining with organelle trackers. Scale bar, 15 μm. (c) Fluorescence imaging of histone H2B in live U-2 OS. U-2 OS cells were co-transfected with plasmids pIre-Azi3 and pmH2B-6-mKate2-16tag to incorporate UAA Azi into H2B-mKate2 at site 16. After Azi incorporation, cells were labelled with 10 μM CO-1 for 90 min at 37 °C. Cells were then washed and imaged. The mKate2 (red) signals were detected in cell nuclei only, and colocalized with the CO-1 (green) signals in the merged image. Scale bar, 5 μm.
U-2 OS cells were treated with 5 μM TPP-Az, in culture media for 2 h at 37 °C. After incubation, cells were washed and added with 2 μM CO-1 probe. Labelling was allowed to proceed for 1 h at 37 °C in the incubator chamber. […]
Fluorescence imaging of mitochondria, lysosome and golgi apparatus in U-2 OS cells labeled with CO-1H. […] In contrast to CO-1, high fluorescence background from CO-1H was observed. […]

Data set [3] is described as follows: Spectroscopic properties (absorbance, emission, extinction coefficient, quantum yield). Conditions: 10 μM in DMSO. It is filed as physicochemical. The procedure: Supplementary Table 9. Spectrocopic properties and purity table for CO-1 and CO-1H.
Calculated mass, experimental mass, absorbance maximum (λabs), fluorescent emission maximum (λem), extinction coefficient (ε), quantum yield (Φ), and purity. mass m/z λabs λem ε Purity […]
Absorbance and fluorescence emission data were recorded by a Synergy 4, Biotek Inc. fluorescent plate reader at 10 μM concentration in DMSO in 96-well plates. HRMS a: found mass (M-H), b: tetramethyl BODIPY was used as standard, c: purity data was calculated on the basis of the integration in HPLC trace at 254 nm.

As for `Cc1cc(C)n2c1C(CCNC(=O)CCC(=O)OCC1C3CCC#CCCC31)=C1C=CC=[N+]1[B-]2(F)F` (centres unmarked) [CO-1], the Photostability result in data set [1] is “superior photostability”. Also, in the data set with U-2 OS cells, the “Cell viability / toxicity” value is “nontoxic and did not interfere with cell proliferation”. Besides, in data set [2], the “Fluorescence background after washing” value is “Clean fluorescence background” and the “Labelling of azide-tagged organelles” value is “clearly labelled the azide-tagged intracellular organelles in live cells”. Further, in data set [3], the ε turned out to be 66668 M⁻¹ cm⁻¹, the λabs was found to be 490 nm and the λem came out at 510 nm. Besides, in data set [3] (tetramethyl BODIPY as standard), the “QY (Φ)” value was 0.66.
